From ChEMBL document CHEMBL1221226 (Nat Chem Biol, 2009)

Key:
[1] = target: Glucagon-like peptide 1 receptor (Homo sapiens, UniProt P43220); experiment: Agonist activity at GLP1R expressed in HEK293 cells assessed as stimulation of cAMP production by luciferase reporter gene assay; type: functional, cell-based
Glucagon receptor = Glucagon receptor (Homo sapiens, UniProt P47871); experiment: Agonist activity at GCGR expressed in HEK293 cells assessed as stimulation of cAMP production by luciferase reporter gene assay; type: functional, cell-based
Glucagon receptor, sequence (P47871 whole entry): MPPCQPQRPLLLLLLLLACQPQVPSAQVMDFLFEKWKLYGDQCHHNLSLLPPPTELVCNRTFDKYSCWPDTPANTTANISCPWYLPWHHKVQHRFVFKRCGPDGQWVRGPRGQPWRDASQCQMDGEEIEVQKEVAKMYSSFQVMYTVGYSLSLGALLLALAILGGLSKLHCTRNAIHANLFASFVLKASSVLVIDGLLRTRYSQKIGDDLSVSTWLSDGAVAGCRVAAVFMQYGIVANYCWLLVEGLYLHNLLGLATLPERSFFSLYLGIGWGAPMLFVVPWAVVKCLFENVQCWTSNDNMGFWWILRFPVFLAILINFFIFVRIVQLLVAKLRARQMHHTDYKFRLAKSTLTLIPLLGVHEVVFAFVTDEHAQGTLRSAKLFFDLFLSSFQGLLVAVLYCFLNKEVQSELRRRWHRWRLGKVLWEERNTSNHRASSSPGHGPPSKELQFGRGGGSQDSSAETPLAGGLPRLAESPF

Glucagon-like peptide 1 receptor, sequence (P43220 whole entry): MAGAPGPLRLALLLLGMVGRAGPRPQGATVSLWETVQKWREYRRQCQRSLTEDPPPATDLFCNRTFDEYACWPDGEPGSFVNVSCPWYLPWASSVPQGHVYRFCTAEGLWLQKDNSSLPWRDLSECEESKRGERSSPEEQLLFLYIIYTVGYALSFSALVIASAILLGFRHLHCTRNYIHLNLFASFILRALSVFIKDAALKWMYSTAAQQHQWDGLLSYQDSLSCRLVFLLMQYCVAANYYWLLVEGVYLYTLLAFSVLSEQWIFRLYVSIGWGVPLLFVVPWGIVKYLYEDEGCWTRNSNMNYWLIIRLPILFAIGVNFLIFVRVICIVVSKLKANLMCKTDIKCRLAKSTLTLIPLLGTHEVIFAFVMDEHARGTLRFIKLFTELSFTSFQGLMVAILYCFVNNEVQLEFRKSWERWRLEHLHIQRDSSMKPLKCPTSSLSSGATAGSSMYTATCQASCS

**Q.** What does the source list for `CSCC[C@H](NC(=O)[C@H](CC(C)C)NC(=O)[C@H](Cc1c[nH]c2ccccc12)NC(=O)[C@H](CCC(N)=O)NC(=O)[C@@H](NC(=O)[C@H](Cc1ccccc1)NC(=O)[C@H](CC(=O)O)NC(=O)[C@H](CCCCN)NC(=O)[C@H](C)NC(=O)[C@H](CCCN=C(N)N)NC(=O)[C@H](CCCN=C(N)N)NC(=O)[C@H](CO)NC(=O)[C@H](CC(=O)O)NC(=O)[C@H](CC(C)C)NC(=O)[C@H](Cc1ccc(O)cc1)NC(=O)[C@H](CCCCN)NC(=O)[C@H](CO)NC(=O)[C@H](Cc1ccc(O)cc1)NC(=O)[C@H](CC(=O)O)NC(=O)[C@H](CO)NC(=O)[C@@H](NC(=O)[C@H](Cc1ccccc1)NC(=O)[C@@H](NC(=O)CNC(=O)[C@H](CCC(N)=O)NC(=O)[C@H](CO)N[C@@H](Cc1cnc[nH]1)C(=O)O)[C@@H](C)O)[C@@H](C)O)C(C)C)C(=O)N[C@@H](CC(N)=O)C(=O)N[C@H](C(N)=O)[C@@H](C)O`?
**A.** EC50 [1]: 130 pM; EC50 (Glucagon receptor): 120 pM

**Q.** For `CC[C@H](C)[C@H](NC(=O)[C@H](Cc1ccccc1)NC(=O)[C@H](CCC(=O)O)NC(=O)[C@H](CCCCN)NC(=O)[C@H](C)NC(=O)[C@H](C)NC(=O)[C@H](CCC(N)=O)NC(=O)[C@H](CCC(=O)O)NC(=O)[C@H](CC(=O)O)NC(=O)[C@H](CC(C)C)NC(=O)[C@H](Cc1ccc(O)cc1)NC(=O)[C@H](CCCCN)NC(=O)[C@H](CO)NC(=O)[C@H](Cc1ccc(O)cc1)NC(=O)[C@H](CC(=O)O)NC(=O)[C@H](CO)NC(=O)[C@@H](NC(=O)[C@H](Cc1ccccc1)NC(=O)[C@@H](NC(=O)CNC(=O)[C@H](CCC(=O)O)NC(=O)[C@H](CO)N[C@@H](Cc1cnc[nH]1)C(=O)O)[C@@H](C)O)[C@@H](C)O)C(=O)N[C@@H](C)C(=O)N[C@@H](Cc1c[nH]c2ccccc12)C(=O)N[C@@H](CC(C)C)C(=O)N[C@@H](CCSC)C(=O)N[C@@H](CC(N)=O)C(=O)N[C@H](C(=O)O)[C@@H](C)O`, which EC50 [1] is on record?
**A.** 28 pM

**Q.** What about the EC50 (Glucagon receptor) of the same molecule?
**A.** 2400 pM

**Q.** Which results are given for `CSCC[C@H](NC(=O)[C@H](CC(C)C)NC(=O)[C@H](Cc1c[nH]c2ccccc12)NC(=O)[C@H](CCC(N)=O)NC(=O)[C@@H](NC(=O)[C@H](Cc1ccccc1)NC(=O)[C@H](CC(=O)O)NC(=O)[C@H](CCC(N)=O)NC(=O)[C@H](C)NC(=O)[C@H](CCCN=C(N)N)NC(=O)[C@H](CCCN=C(N)N)NC(=O)[C@H](CCC(=O)O)NC(=O)[C@H](CC(=O)O)NC(=O)[C@H](CC(C)C)NC(=O)[C@H](Cc1ccc(O)cc1)NC(=O)[C@H](CCCCN)NC(=O)[C@H](CO)NC(=O)[C@H](Cc1ccc(O)cc1)NC(=O)[C@H](CC(=O)O)NC(=O)[C@H](CO)NC(=O)[C@@H](NC(=O)[C@H](Cc1ccccc1)NC(=O)[C@@H](NC(=O)CNC(=O)[C@H](CCC(N)=O)NC(=O)[C@H](CO)N[C@@H](Cc1cnc[nH]1)C(=O)O)[C@@H](C)O)[C@@H](C)O)C(C)C)C(=O)N[C@@H](CC(N)=O)C(=O)N[C@H](C(=O)O)[C@@H](C)O`?
**A.** EC50 [1]: 1100 pM; EC50 (Glucagon receptor): 53 pM

**Q.** For `CSCC[C@H](NC(=O)[C@H](CC(C)C)NC(=O)[C@H](Cc1c[nH]c2ccccc12)NC(=O)[C@H](CCC(N)=O)NC(=O)[C@@H](NC(=O)[C@H](Cc1ccccc1)NC(=O)[C@H](CC(=O)O)NC(=O)[C@H](CCC(N)=O)NC(=O)[C@H](C)NC(=O)[C@H](CCCNC(=N)N)NC(=O)[C@H](CCCNC(=N)N)NC(=O)[C@H](Cc1c[nH]cn1)NC(=O)[C@H](CC(=O)O)NC(=O)[C@H](CC(C)C)NC(=O)[C@H](Cc1ccc(O)cc1)NC(=O)[C@H](CCCCN)NC(=O)[C@H](CO)NC(=O)[C@H](Cc1ccc(O)cc1)NC(=O)[C@H](CC(=O)O)NC(=O)[C@H](CO)NC(=O)[C@@H](NC(=O)[C@H](Cc1ccccc1)NC(=O)[C@@H](NC(=O)CNC(=O)[C@H](CCC(N)=O)NC(=O)[C@H](CO)N[C@@H](Cc1cnc[nH]1)C(=O)O)[C@@H](C)O)[C@@H](C)O)C(C)C)C(=O)N[C@@H](CC(N)=O)C(=O)N[C@H](C(N)=O)[C@@H](C)O`, which EC50 [1] is on record?
**A.** 230 pM

**Q.** What about the EC50 (Glucagon receptor) of the same molecule?
**A.** 100 pM
